In PMC9404985, “Development of Dicationic Bisguanidine-Arylfuran Derivatives as Potent Agents against Gram-Negative Bacteria” (Antibiotics, 2022):
pEC50: −log10 of the molar value.

What was measured:
[1] = tested on: P. caledonica (NBRC/ATCC #102488); assay: Antibacterial resazurin assay, laboratory strain; conditions: for pEC50 / EC90: Paraburkholderia caledonica, ATCC102488, 18 h; for pEC50: read-out: Pcal EC50; for EC90: read-out: Pcal EC90; for Selectivity index P. caledonica: mean of MCF-7 and HepG2 EC50 over bacterial EC50, laboratory strain
[2] = tested on: B. subtilis (NBRC/ATCC #111470); assay: Antibacterial resazurin assay, laboratory strain; conditions: Bacillus subtilis, ATCC111470, 18 h; for pEC50: read-out: Bsu EC50; for EC90: read-out: Bsu EC90
[3] = tested on: P. putida (NBRC/ATCC #100650); assay: Antibacterial resazurin assay, laboratory strain; conditions: for pEC50 / EC90: Pseudomonas putida, ATCC100650, 18 h; for pEC50: read-out: Ppu EC50, laboratory strain, 18 h, 37 °C, AlamarBlue; for EC90: read-out: Ppu EC90; for Selectivity index P. putida: mean of MCF-7 and HepG2 EC50 over bacterial EC50, laboratory strain
[4] = tested on: P. carotovorum (NBRC/ATCC #3380); assay: Antibacterial resazurin assay, laboratory strain; conditions: for pEC50 / EC90: Pectobacterium carotovorum, ATCC3380, 18 h; for pEC50: read-out: Pcar EC50, laboratory strain, 18 h, 37 °C, AlamarBlue; for EC90: read-out: Pcar EC90; for Selectivity index P. carotovorum: mean of MCF-7 and HepG2 EC50 over bacterial EC50, laboratory strain
[5] = tested on: E. hormaechei (CCUG #58962); assay: Antibacterial activity against isolates (Omnilog, Biolog redox dye); format: cell-based, Enterobacter hormaechei; conditions: for pEC50 / EC90: Enterobacter hormaechei, CCUG58962, ca-MH broth, 24 h, 37 °C
Method: (§1) The antibacterial activities of eight compounds (1, 3, 4, 6, 8, 10, 16, and 17) were tested against 10 different isolates of Gram-negative bacteria from human and other sources, two E. coli (CCUG #67180 and CCUG #17620/ATCC #25922, control strain), two K. pneumoniae (CCUG #58547 and CCUG #225T), two P. aeruginosa (CCUG #17619 and CCUG #59347), two A. baumannii (CCUG #57035 and CCUG #57250), E. cloacae (CCUG #6323T), and E. hormaechei (CCUG #58962) in a 96-well plate format. […] Bacterial mass from the ten isolates grown overnight on horse blood or Mueller–Hinton agar plates was suspended in ca-MH and adjusted to a final inoculum cell density of ~5 × 10^5 CFU/mL. For all assays, Biolog redox dye A diluted 100× from the stock solution was used for measurements of all ten isolates (up to a total volume of 120 µL per well). All plates included one well per isolate with only inoculum and dye but no test compound (i.e., positive control) and one well per isolate with inoculum, dye and DMSO diluted 1667×, corresponding to the DMSO concentration in the wells with the highest concentration of test compound. All measurements were performed using the Omnilog microplate reader (Biolog, Hayward, CA, USA) where the 96-well plates were read at 15 min intervals for a total of 24 h at 37 °C.

[6] = tested on: K. pneumoniae (CCUG #58547); assay: as above; format: cell-based, Klebsiella pneumoniae; conditions: for pEC50 / EC90: Klebsiella pneumoniae, CCUG58547, ca-MH broth, 24 h, 37 °C
Method: as §1

[7] = tested on: K. pneumoniae (CCUG #225T); assay: as above; format: cell-based, Klebsiella pneumoniae; conditions: for pEC50 / EC90: Klebsiella pneumoniae, ca-MH broth, 24 h, 37 °C
Method: (§2) The antibacterial activities of eight compounds (1, 3, 4, 6, 8, 10, 16, and 17) were tested against 10 different isolates of Gram-negative bacteria from human and other sources, two E. coli (CCUG #67180 and CCUG #17620/ATCC #25922, control strain), two K. pneumoniae (CCUG #58547 and CCUG #225T), two P. aeruginosa (CCUG #17619 and CCUG #59347), two A. baumannii (CCUG #57035 and CCUG #57250), E. cloacae (CCUG #6323T), and E. hormaechei (CCUG #58962) in a 96-well plate format. The compounds to test were 3-fold diluted in six steps in cation-adjusted Mueller-Hinton (ca-MH) broth to final concentrations spanning from 30 to 0.12 µM, i.e., a 1667–416,667 times dilution from the 50 mM stocks. Bacterial mass from the ten isolates grown overnight on horse blood or Mueller–Hinton agar plates was suspended in ca-MH and adjusted to a final inoculum cell density of ~5 × 10^5 CFU/mL. For all assays, Biolog redox dye A diluted 100× from the stock solution was used for measurements of all ten isolates (up to a total volume of 120 µL per well). All plates included one well per isolate with only inoculum and dye but no test compound (i.e., positive control) and one well per isolate with inoculum, dye and DMSO diluted 1667×, corresponding to the DMSO concentration in the wells with the highest concentration of test compound. All measurements were performed using the Omnilog microplate reader (Biolog, Hayward, CA, USA) where the 96-well plates were read at 15 min intervals for a total of 24 h at 37 °C.

[8] = Cytotoxicity assay (PrestoBlue) MCF-7; format: cell-based; conditions: human, MCF-7 cells (breast cancer cell line), 24 h incubation
Method: The cytotoxicity levels of all compounds were evaluated against human Michigan Cancer Foundation-7 (MCF-7) and Hepatoma G2 cell line (HepG2) cell lines. MCF-7 is an extensively characterized breast cancer cell line isolated in 1970 [41], while HepG2 cells were derived from a hepatoma in 1975 [42]. Both cell lines grow robustly during in vitro culture and have been widely used for cytotoxicity testing. Cells of hepatic origin, such as HepG2, are of particular relevance for toxicity studies as many drugs accumulate in the liver during metabolic conversion. Cells were grown in Dulbecco’s Modified Eagle Medium supplemented with 10% fetal calf serum and kept in exponential growth, as previously reported. Before the assay, cells were reseeded into 96-well microtiter plates at a density allowing continued exponential growth and let to settle for 24 h. The compounds were added from a stock solution in DMSO, for a final concentration of 0.3% v/v of the solvent in the culture medium. After 24 h of incubation in presence of the compound, cell viability was assayed using PrestoBlue Cell Viability Reagent (resazurin-based solution, ThermoFisher, Waltham, MA, USA) according to the manufacturer’s instructions. […] Each assay contained a DMSO control at the equivalent starting concentration, positive control (uninhibited cell growth) and negative control (cell medium only). Survival was expressed as percentage of the solvent-only control. […] The Selectivity Index (SI) for each compound and bacterial strain was calculated as the ratio between the mean of the EC50 values for the two human cell lines and the EC50 for the bacterial strain in question ((EC50 MCF-7 + EC50 HepG2)/2)/EC50 bacterial strain).

[9] = tested on: P. aeruginosa (CCUG #17619); assay: Antibacterial activity against isolates (Omnilog, Biolog redox dye); format: cell-based, Pseudomonas aeruginosa; conditions: for pEC50 / EC90: Pseudomonas aeruginosa, CCUG17619, ca-MH broth, 24 h, 37 °C; for Selectivity index P. aeruginosa (CCUG #17619): SI = ((EC50 MCF-7 + EC50 HepG2)/2)/EC50 bacterial strain
Method: as §2

[10] = SI = ((EC50 MCF-7 + EC50 HepG2)/2)/EC50 bacterial strain

Row | Structure (SMILES) | pEC50 [1] | EC90 [1] | Selectivity index P. caledonica [1] | pEC50 [2] | EC90 [2] | pEC50 [3] | EC90 [3] | Selectivity index P. putida [3] | pEC50 [4] | EC90 [4] | Selectivity index P. carotovorum [4] | pEC50 [5] | EC90 [5] | pEC50 [6] | EC90 [6] | pEC50 [7] | EC90 [7] | EC50 at 24 h [8] | pEC50 [9] | EC90 [9] | further results
1 | N=C(N)Nc1ccc(-c2ccc(C(=O)N3CCc4cc(NC(=N)N)ccc43)o2)c(Cl)c1 [Compound 16, (5-(2-chloro-4-guanidinophenyl)furan-2-yl)(5-guanidinoindolin-1-yl)methanone] | 4.29 | 176 µM | 4.1 | < 3.52 | > 300 µM | 4.03 | 147 µM | 2.2 | 4.15 | 80.7 µM | 2.9 | 4.90 | 14.7 µM | 4.89 | 15.3 µM | 5.01 | 12.2 µM | 177 µM | 4.77 | 22.9 µM | Selectivity index E. hormaechei (CCUG #58962) [5, 10]: 16.4; Selectivity index K. pneumoniae (CCUG #58547) [6, 10]: 16.2; Selectivity index K. pneumoniae (CCUG #225T) [7, 10]: 21.4; Selectivity index P. aeruginosa (CCUG #17619) [9]: 12.2
2 | N=C(N)Nc1ccc(-c2ccc(C(=O)N3CCc4cc(NC(=N)N)ccc43)o2)cc1 [Compound 17, (5-(4-guanidinophenyl)furan-2-yl)(5-guanidinoindolin-1-yl)methanone] | 4.14 | > 300 µM | 2.7 | < 3.52 | > 300 µM | 4.13 | 98 µM | 2.6 | 3.89 | 142 µM | 1.5 | < 3.70 | > 200 µM | < 3.70 | > 200 µM | < 3.70 | > 200 µM | 149 µM | 4.64 | 27 µM | Selectivity index P. aeruginosa (CCUG #17619) [9]: 8.5
